The record followed here is patent US9550796B2, “Pyrrolopyrrolone derivatives and their use as BET inhibitors” (NOVARTIS AG, priority 2013, dated 2017).

Test [1] relates to K-562. Briefly: Cell growth inhibition assay (CellTiter-Glo), K-562. Conditions: K-562 cells, 4 days; for GI50: Homo sapiens, K562, 96 h, half-maximal growth inhibition; for K-562 TGI: total growth inhibition. In kind it is cell-based, human. An outline of the steps:
(§1)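 A separate day 0 plate allows cytotoxic and cytostatic effects to be distinguished: viable-cell ATP after 4-day compound treatment (top 10 μM, 3-fold steps) is expressed relative to it. DMSO-only wells count as 100% and medium-only wells as −100%.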
Background: Cellular ATP, detected with luciferase, serves as a proxy for viable cell number.

Test [2] addresses BRD2 (Homo sapiens (Human), UniProt P25440). As to the kind of experiment: TR-FRET in-vitro binding assay for BRD2. The note with it: 45 nM His-Brd2(60-472), acetyl-histone H4 (AcK 5, 8, 12, 16) peptide. The method in brief:
(§2)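 Binding is detected by TR-FRET following incubation for 35 minutes at 30° C.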

Test [3] has as its system MV-4-11. As to the kind of experiment: Cell growth inhibition assay (CellTiter-Glo), MV-4-11. In kind it is cell-based, human. The note with it: MV-4-11 cells, 4 days; for GI50: Homo sapiens, MV4-11, 96 h, half-maximal growth inhibition; for MV-4-11 TGI: total growth inhibition. An outline of the steps:
as §1

Test [4] concerns THP-1. As to the kind of experiment: Cell growth inhibition assay (CellTiter-Glo), THP-1. It is filed as cell-based, human. The note with it: THP-1 cells, 4 days; for GI50: Homo sapiens, 96 h, half-maximal growth inhibition; for THP-1 TGI: total growth inhibition. An outline of the steps: as §1
Test [5] has as its target BRD4 (Homo sapiens (Human), UniProt O60885). As to the kind of experiment: TR-FRET in-vitro binding assay for BRD4. Conditions: 45 nM His-Brd4(44-477), acetyl-histone H4 (AcK 5, 8, 12, 16) peptide. An outline of the steps:
as §2

Sequence of BRD2 (P25440 60-472): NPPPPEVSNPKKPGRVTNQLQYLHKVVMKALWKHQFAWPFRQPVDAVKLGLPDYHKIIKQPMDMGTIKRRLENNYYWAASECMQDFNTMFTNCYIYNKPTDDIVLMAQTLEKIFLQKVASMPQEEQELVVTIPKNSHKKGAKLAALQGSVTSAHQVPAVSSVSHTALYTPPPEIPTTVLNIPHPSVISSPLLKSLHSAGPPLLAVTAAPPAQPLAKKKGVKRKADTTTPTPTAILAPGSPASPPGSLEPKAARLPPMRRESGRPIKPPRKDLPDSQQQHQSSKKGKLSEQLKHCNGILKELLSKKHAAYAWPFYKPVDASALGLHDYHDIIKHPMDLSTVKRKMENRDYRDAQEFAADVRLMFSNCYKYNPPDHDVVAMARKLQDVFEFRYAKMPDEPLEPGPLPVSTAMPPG

For orientation: GI50 means the concentration at which growth is held to half of that of the control. Low readings indicate greater sensitivity of the cells, high ones lower sensitivity of the cells. The term IC50 denotes the concentration needed to halve the response being measured. Low readings indicate greater potency, high ones weaker potency. Consider `COc1ncc(-c2cc3c(n2C)[C@@H](c2ccc(Cl)cc2)N(c2cc(C)c(=O)n(C)c2)C3=O)c(OC)n1` [Example 54, (R)-6-(4-chlorophenyl)-2-(2,4-dimethoxypyrimidin-5-yl)-5-(1,5-dimethyl-6-oxo-1,6-dihydropyridin-3-yl)-1-methyl-5,6-dihydropyrrolo[3,4-b]pyrrol-4(1H)-one], for which, in test [1], the GI50 worked out at 48.3 nM and the “K-562 TGI” value is over 10000 nM. Moreover, in test [2], the IC50 was determined as 27 nM. In addition, in test [3], the GI50 worked out at 8.9 nM and the “MV-4-11 TGI” value amounted to 18 nM. In test [4], the GI50 worked out at 23.3 nM and the “THP-1 TGI” value is 41.5 nM. Also, the IC50 in test [5] was 45 nM.

With `COc1ncc(-c2cc3c(n2C)[C@@H](c2ccc(Cl)cc2)N(c2cc(C)c(=O)n(C)c2)C3=O)cn1` [Example 56, (R)-6-(4-chlorophenyl)-5-(1,5-dimethyl-6-oxo-1,6-dihydropyridin-3-yl)-2-(2-methoxypyrimidin-5-yl)-1-methyl-5,6-dihydropyrrolo[3,4-b]pyrrol-4(1H)-one], in test [1], it took 103 nM to inhibit growth by half (GI50) and the “K-562 TGI” value was over 10000 nM. Also, the IC50 in test [2] amounted to 30 nM. Besides, in test [3], halving of growth (GI50) required 24.8 nM and the “MV-4-11 TGI” value was found to be 44.5 nM. Further, in test [4], growth was halved (GI50) at 30.3 nM and the “THP-1 TGI” value is 50.7 nM. The compound further showed an IC50 in test [5] of 28.3 nM.

On to `COc1ncc(-c2cc3c(n2C)C(c2ccc(Cl)cc2)N(c2cc(Cl)c(=O)n(C)c2)C3=O)c(OC)n1` (centres unmarked) [Example 38, 5-(5-chloro-1-methyl-6-oxo-1,6-dihydropyridin-3-yl)-6-(4-chlorophenyl)-2-(2,4-dimethoxypyrimidin-5-yl)-1-methyl-5,6-dihydropyrrolo[3,4-b]pyrrol-4(1H)-one], for which the GI50 was determined as 154 nM in test [1], 29.4 nM in test [3] and 37.5 nM in test [4]. In addition, the “K-562 TGI” value in test [1] is over 10000 nM. The IC50 in test [2] was determined as 322 nM; in test [5], 47 nM. Besides, the “MV-4-11 TGI” value in test [3] was 51.5 nM. For the same compound, in test [4], the “THP-1 TGI” value turned out to be 72.7 nM.

As for `Cn1ccc2c1[C@@H](c1ccc(Cl)cc1)N(c1cc(Cl)c(=O)n(C)c1)C2=O` [Example 77, (R)-5-(5-chloro-1-methyl-6-oxo-1,6-dihydropyridin-3-yl)-6-(4-chlorophenyl)-1-methyl-5,6-dihydropyrrolo[3,4-b]pyrrol-4(1H)-one], in test [1], halving of growth (GI50) required 342 nM and the “K-562 TGI” value is over 10000 nM. The IC50 in test [2] came out at 198 nM. Also, in test [3], the GI50 worked out at 57.6 nM and the “MV-4-11 TGI” value is 96.3 nM. Besides, in test [4], halving of growth (GI50) required 88.9 nM and the “THP-1 TGI” value was 146 nM. Further, in test [5], the IC50 came out at 109 nM.

As for `Cc1cn(C)c2c1C(=O)N(c1cc(C)c(=O)n(C)c1)C2c1ccc(Cl)cc1` (centres unmarked) [Example 34, 6-(4-chlorophenyl)-5-(1,5-dimethyl-6-oxo-1,6-dihydropyridin-3-yl)-1,3-dimethyl-5,6-dihydropyrrolo[3,4-b]pyrrol-4(1H)-one], in test [1], halving of growth (GI50) required 241 nM and the “K-562 TGI” value is over 10000 nM. This compound showed an IC50 in test [2] of 37 nM. For the same compound, in test [3], the GI50 was found to be 19.4 nM and the “MV-4-11 TGI” value turned out to be 48.3 nM. Also, in test [4], the GI50 came out at 43.8 nM and the “THP-1 TGI” value stood at 99.4 nM. Further, the IC50 in test [5] was 43 nM.

For `Cc1cn(C)c2c1C(=O)N(c1cc(C)c3nnc(C)n3c1)C2c1ccc(Cl)cc1` (centres unmarked) [Example 33, 6-(4-chlorophenyl)-5-(3,8-dimethyl-[1,2,4]triazolo[4,3-a]pyridin-6-yl)-1,3-di methyl-5,6-dihydropyrrolo[3,4-b]pyrrol-4(1H)-one], in test [1], halving of growth (GI50) required 97.4 nM and the “K-562 TGI” value was over 10000 nM. The compound also yielded an IC50 in test [2] of 36 nM. Moreover, in test [3], the GI50 was 7.71 nM and the “MV-4-11 TGI” value was found to be 20.05 nM. Besides, in test [4], halving of growth (GI50) required 17.4 nM and the “THP-1 TGI” value was 35.6 nM. Moreover, the IC50 in test [5] is 31 nM.

In the case of `Cc1cc(N2C(=O)c3cc(-c4ccn(C)c(=O)c4)n(C)c3C2c2ccc(Cl)cc2)cn(C)c1=O` (centres unmarked) [Example 45, 6-(4-chlorophenyl)-5-(1,5-dimethyl-6-oxo-1,6-dihydropyridin-3-yl)-1-methyl-2-(1-methyl-2-oxo-1,2-dihydropyridin-4-yl)-5,6-dihydropyrrolo[3,4-b]pyrrol-4(1H)-one], in test [1], halving of growth (GI50) required 345 nM and the “K-562 TGI” value was over 10000 nM. In test [2], this compound had an IC50 of 22 nM. Besides, in test [3], the GI50 stood at 55.9 nM and the “MV-4-11 TGI” value came out at 96.7 nM. Further, in test [4], the GI50 worked out at 109 nM and the “THP-1 TGI” value was 213 nM. The compound further displayed an IC50 in test [5] of 24.5 nM.

Take `Cn1c(-c2ccc(=O)n(C)c2)cc2c1C(c1ccc(Cl)cc1)N(c1cc(Cl)c(=O)n(C)c1)C2=O` (centres unmarked) [Example 42, 5-(5-chloro-1-methyl-6-oxo-1,6-dihydropyridin-3-yl)-6-(4-chlorophenyl)-1-methyl-2-(1-methyl-6-oxo-1,6-dihydropyridin-3-yl)-5,6-dihydropyrrolo[3,4-b]pyrrol-4(1H)-one]: in test [1], it took 3190 nM to inhibit growth by half (GI50) and the “K-562 TGI” value was over 10000 nM. Further, in test [3], the GI50 worked out at 227 nM and the “MV-4-11 TGI” value came out at 348 nM. In addition, in test [4], the GI50 came out at 811 nM and the “THP-1 TGI” value turned out to be 1470 nM. In test [5], this compound gave an IC50 of 270 nM.

Take `Cc1cc2c(n1C)[C@@H](c1ccc(Cl)cc1)N(c1cc(Cl)c(=O)n(C)c1)C2=O` [Example 75, (R)-5-(5-chloro-1-methyl-6-oxo-1,6-dihydropyridin-3-yl)-6-(4-chlorophenyl)-1,2-dimethyl-5,6-dihydropyrrolo[3,4-b]pyrrol-4(1H)-one]: in test [1], the GI50 stood at 289 nM and the “K-562 TGI” value is over 10000 nM. Also, in test [2], the IC50 was determined as 135 nM. In test [3], growth was halved (GI50) at 54.8 nM and the “MV-4-11 TGI” value came out at 102 nM. Also, in test [4], the GI50 worked out at 74.3 nM and the “THP-1 TGI” value worked out at 167 nM. This compound also displayed an IC50 in test [5] of 85.3 nM.
